Active and inactive are the calls of the source.
Experiments:
[1] = HEK293 cell cytotoxicity, dose response, cytotoxicity control, plate reader, cherry-picked samples (AID 743446); format: functional, cell-based
[2] = LGR2 antagonists, dose response, cell-based, HEK293, CRE-luciferase reporter, cherry pick, set 2 (AID 743343); format: functional;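 note: transfected cells were stimulated with diluted bursicon conditioned medium after compound addition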
[3] = MC4R antagonists, dose response, counter-screen for LGR2 antagonist project, cell-based, plate reader, cherry pick (AID 743444); format: functional;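 note: transfected HEK 293 cells stimulated with alpha-MSH peptide; potency of inhibitors of the alpha-MSH evoked signal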
[4] = Shn3 3'UTR reporter inhibitors, dose response, cell-based, Clone20 osteoblasts, firefly luciferase, cherry-picked (AID 624132); format: functional;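 note: firefly luciferase luminescence from reporter carrying the Shn3 3'UTR in osteoblasts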
[5] = test system: INS1; assay: beta cell apoptosis inhibitors, cytokine rescue, dose response, luminescence, retest (AID 449756); format: functional, cell-based; details: Rattus norvegicus;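 note: cell death triggered by IL-1 beta plus TNF-alpha plus IFN-gamma mixture; protective hits raise ATP signal compared with cytokine alone wells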
[6] = HepG2 cell cytotoxicity, dose response, cytotoxicity control for Shn3 inhibitor project, CellTiter-Glo, cherry-picked (AID 624134); format: functional, cell-based
[7] = target: Protein Wnt-3a (Mus musculus, UniProt P27467); assay: Wnt3a-driven reporter signaling inhibition, dose response, selectivity assay for Gli-SUFU antagonist project, Wnt-LIGHT cells, luminescence (AID 651570); format: functional; details: read-out: IC50_Mean;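 note: Wnt-LIGHT reporter cells stimulated with conditioned medium from Wnt3a-producing cells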
[8] = P. falciparum Dd2 growth inhibitors, dose response, SYBR Green, dry powder samples, set 9 (AID 1159568); format: functional, cell-based
[9] = ADAM10 inhibitors, peptide cleavage, dose response, biochemical, QFRET (AID 743254);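 note: ADAM10 enzyme with the DM2 quenched FRET peptide as substrate; EDANS fluorescence gain as the protease cuts the substrate; inhibitor potency against ADAM10 proteolytic activity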
[10] = target: Disintegrin and metalloproteinase domain-containing protein 17 (Homo sapiens, UniProt P78536); assay: ADAM17 protease inhibitors, dose response, counter-screen for ADAM10 exosite inhibitor project, biochemical, quenched FRET substrate (AID 743253)
[11] = ZM109 Env clade C HIV-1 fusion inhibitors, dose response, HeLa effector, CEM target cells, luciferase, cherry-pick (AID 652058); format: functional, cell-based
[12] = off-target signal loss in HeLa-CEM21 co-culture – HeLa F-luc CTL cells, cherry-picked, counter-screen for HIV-1 Env fusion inhibitor project, dose response (AID 652040); format: functional, cell-based;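 note: potency for signal decrease marking cytotoxic or nonspecific inhibition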
[13] = inhibitors of clade B AD8 Env fusion, dose response, cell-based, cherry-pick (AID 652062); format: functional;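 note: luciferase signal from cell-cell fusion driven by HIV-1 clade B AD8 Env; potency is for inhibitors of fusion seen as a drop in luminescence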
[14] = inhibitors of HIV Env-driven cell fusion, dose response, cherry-pick (AID 652057); format: functional, cell-based
[15] = Fluorescence-based cell-based high throughput dose response assay for inhibitors of the interaction of nucleotide-binding oligomerization domain containing 2 (NOD2) and the receptor-interacting serine-threonine kinase 2 (RIPK2).; format: functional; details: Homo sapiens
[16] = miR-122 activators in hepatoma reporter cells, dose response, cell-based, Huh7 psiCHECK-miR122, Renilla luciferase, cherry-picked (AID 651956); format: functional;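 note: huh7 hepatoma cells stably carrying a psiCHECK-2 miR-122 sensor plasmid; renilla luciferase signal reporting endogenous miR-122 activity after 48 h compound exposure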
[17] = intracellular Trypanosoma cruzi inhibitors in host cells – cell-based, plate reader, cherry-pick samples, set 3, dose response (AID 651818); format: functional;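 note: compounds incubated with infected cells for about four days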
[18] = target: T1, Low molecular weight phosphotyrosine protein phosphatase (Homo sapiens, UniProt P24666); format: functional; details: read-out: IC50_Mean
T1 sequence (P24666 whole entry): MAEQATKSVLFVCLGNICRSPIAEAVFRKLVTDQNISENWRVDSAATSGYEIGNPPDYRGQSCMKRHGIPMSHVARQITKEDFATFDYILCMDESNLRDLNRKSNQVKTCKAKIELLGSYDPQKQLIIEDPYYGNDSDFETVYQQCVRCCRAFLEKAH

[19] = target: T1, Low molecular weight phosphotyrosine protein phosphatase; format: functional; details: read-out: IC50_Mean; remark: listed apart in the source
[20] = target: T2, DNA repair and recombination protein RAD54-like (Homo sapiens, UniProt Q92698); assay: inhibitors of human RAD54 branch migration, confirmation, biochemical, fluorescence, cherry-picked samples, dose series (AID 651657); format: functional
T2 sequence (Q92698 whole entry): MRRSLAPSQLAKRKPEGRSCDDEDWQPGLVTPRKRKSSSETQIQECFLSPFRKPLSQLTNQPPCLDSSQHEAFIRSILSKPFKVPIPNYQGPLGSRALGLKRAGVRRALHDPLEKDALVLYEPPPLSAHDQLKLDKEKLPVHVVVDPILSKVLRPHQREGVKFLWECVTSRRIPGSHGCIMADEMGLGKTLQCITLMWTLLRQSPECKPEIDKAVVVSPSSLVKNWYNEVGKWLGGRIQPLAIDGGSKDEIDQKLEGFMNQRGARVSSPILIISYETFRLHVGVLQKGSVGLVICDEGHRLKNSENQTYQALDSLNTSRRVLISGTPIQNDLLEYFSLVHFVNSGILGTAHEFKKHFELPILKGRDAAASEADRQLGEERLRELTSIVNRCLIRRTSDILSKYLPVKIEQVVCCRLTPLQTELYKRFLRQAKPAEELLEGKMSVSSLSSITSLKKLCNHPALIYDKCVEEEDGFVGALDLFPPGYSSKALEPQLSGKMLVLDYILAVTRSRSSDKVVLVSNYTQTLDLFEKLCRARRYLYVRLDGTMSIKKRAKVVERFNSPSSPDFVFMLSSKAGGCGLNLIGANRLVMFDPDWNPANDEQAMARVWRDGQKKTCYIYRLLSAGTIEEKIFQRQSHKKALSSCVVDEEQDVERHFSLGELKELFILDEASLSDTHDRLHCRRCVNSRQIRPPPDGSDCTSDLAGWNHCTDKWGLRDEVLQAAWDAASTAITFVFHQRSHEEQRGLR

[21] = A549 cell cytotoxicity, dose response, cytotoxicity control, plate reader, cherry-pick, antagonist series (AID 743412); format: functional, cell-based
[22] = target: Eukaryotic translation initiation factor 4E (Mus musculus, UniProt P63073); assay: eIF4E–eIF4G protein interaction inhibitors, dose response, biochemical, TR-FRET (AID 855); format: functional;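 note: potency for disrupting eIF4E binding to eIF4GI seen as loss of FRET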
[23] = target: T3, Calpain-2 catalytic subunit (Sus scrofa, UniProt P43367); assay: pig calpain II inhibitor potency, dose response, biochemical, fluorogenic peptide substrate (AID 1420); format: functional
T3 sequence (P43367 whole entry): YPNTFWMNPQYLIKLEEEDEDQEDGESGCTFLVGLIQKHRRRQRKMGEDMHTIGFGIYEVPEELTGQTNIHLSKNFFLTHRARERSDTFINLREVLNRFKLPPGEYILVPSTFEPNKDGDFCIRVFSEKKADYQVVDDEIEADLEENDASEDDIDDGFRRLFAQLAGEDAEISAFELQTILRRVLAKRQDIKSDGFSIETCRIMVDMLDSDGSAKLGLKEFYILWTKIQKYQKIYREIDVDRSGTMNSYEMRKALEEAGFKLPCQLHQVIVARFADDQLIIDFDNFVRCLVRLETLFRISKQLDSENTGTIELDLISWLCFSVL

[24] = target: T4, Protein skinhead-1 (Caenorhabditis elegans, UniProt P34707); format: functional
T4 sequence (P34707 whole entry): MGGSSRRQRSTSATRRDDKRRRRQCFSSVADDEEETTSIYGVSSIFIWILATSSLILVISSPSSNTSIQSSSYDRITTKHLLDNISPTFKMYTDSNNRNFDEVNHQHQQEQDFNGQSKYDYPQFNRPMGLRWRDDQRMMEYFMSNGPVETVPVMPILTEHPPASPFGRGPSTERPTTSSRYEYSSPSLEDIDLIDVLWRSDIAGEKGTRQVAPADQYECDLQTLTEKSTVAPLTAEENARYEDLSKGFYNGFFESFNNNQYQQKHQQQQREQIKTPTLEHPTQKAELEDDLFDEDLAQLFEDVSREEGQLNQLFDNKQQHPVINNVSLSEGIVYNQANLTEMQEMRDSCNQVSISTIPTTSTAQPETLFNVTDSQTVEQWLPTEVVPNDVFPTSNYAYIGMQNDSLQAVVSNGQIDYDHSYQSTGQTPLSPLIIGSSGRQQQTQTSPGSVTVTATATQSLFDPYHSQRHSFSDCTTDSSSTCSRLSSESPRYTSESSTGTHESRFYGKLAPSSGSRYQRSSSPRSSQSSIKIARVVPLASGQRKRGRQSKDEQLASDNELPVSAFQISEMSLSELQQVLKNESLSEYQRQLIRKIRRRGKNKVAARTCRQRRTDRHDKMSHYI

Chain of Disintegrin and metalloproteinase domain-containing protein 17 (P78536 whole entry, the tested form may be a part): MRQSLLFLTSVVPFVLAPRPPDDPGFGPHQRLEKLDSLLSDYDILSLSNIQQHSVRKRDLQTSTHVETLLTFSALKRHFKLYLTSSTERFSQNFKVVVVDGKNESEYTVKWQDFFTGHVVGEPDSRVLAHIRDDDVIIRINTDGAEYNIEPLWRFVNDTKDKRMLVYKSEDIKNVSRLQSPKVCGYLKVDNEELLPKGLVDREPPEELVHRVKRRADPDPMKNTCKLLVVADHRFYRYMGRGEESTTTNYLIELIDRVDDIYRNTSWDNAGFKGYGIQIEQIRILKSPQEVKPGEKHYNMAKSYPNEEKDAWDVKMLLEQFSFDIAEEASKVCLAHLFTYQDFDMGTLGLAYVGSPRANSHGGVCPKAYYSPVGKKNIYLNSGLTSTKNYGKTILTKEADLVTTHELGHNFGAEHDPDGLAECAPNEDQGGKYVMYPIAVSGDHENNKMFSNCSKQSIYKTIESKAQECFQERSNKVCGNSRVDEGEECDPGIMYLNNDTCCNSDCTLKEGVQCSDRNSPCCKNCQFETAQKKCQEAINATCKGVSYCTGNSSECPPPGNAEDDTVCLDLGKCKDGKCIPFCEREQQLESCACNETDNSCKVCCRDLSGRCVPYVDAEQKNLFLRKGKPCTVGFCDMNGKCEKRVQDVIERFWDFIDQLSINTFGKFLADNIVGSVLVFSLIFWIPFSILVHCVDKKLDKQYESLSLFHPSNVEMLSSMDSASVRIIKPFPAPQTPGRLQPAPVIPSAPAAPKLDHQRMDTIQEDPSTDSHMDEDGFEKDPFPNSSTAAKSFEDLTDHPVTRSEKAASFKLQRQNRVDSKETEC
Chain of Eukaryotic translation initiation factor 4E (P63073 whole entry): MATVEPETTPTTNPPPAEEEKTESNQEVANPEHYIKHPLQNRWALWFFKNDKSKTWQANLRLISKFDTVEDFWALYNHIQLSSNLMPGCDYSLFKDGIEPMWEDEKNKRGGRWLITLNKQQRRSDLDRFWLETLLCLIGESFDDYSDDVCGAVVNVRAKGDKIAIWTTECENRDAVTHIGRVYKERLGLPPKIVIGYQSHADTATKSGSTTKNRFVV
Chain of Protein Wnt-3a (P27467 whole entry): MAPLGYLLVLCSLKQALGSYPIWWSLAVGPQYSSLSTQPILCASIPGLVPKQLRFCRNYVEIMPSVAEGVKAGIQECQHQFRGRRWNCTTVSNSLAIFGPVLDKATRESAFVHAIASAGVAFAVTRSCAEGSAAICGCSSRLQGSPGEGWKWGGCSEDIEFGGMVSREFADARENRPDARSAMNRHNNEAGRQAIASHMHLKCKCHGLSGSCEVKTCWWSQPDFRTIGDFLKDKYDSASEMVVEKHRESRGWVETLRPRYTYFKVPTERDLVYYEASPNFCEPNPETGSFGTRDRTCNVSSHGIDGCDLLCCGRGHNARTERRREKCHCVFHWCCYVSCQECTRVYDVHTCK

SMILES: CN(C)c1ccc(-c2nc3cc(N)ccc3o2)cc1
- AC50 [1]: > 52 µM (inactive)
- AC50 [2]: 2.28 µM (active)
- AC50 [3]: 3.58 µM (active)

SMILES: COc1ccc(NS(=O)(=O)c2cccc(NC(=O)c3ccc(S(=O)(=O)N4CCCCCC4)cc3)c2)cc1
- AC50 [4]: 0.829 µM (active)
- AC50 [5]: 3.12 µM (active)
- AC50 [6]: 38.8 µM (active)
- IC50 [7]: 1.76 µM (active)

SMILES: CC(C)[C@H]1COCn2nncc2CCCC(=O)N1
- AC50 [8]: > 39 µM (inactive)

SMILES: C=C(C)COc1ccc(-c2[nH]nc(C)c2Oc2ccccc2OC)c(O)c1
- IC50 [9]: 8.72 µM (active)

SMILES: O=C(N/N=C/c1cn(-c2cccs2)nc1-c1ccccc1)c1ccccc1Cl
- IC50 [9]: > 69.5 µM (inactive)
- IC50 [10]: > 69.5 µM (inactive)

SMILES: C[C@@]12C(=O)N(c3cccc(Cl)c3)C(=O)N1[C@H](c1ccc(Cl)cc1)[C@@H]1C(=O)N(C3CCCCC3)C(=O)[C@@H]12
- AC50 [11]: 1.31 µM (active)
- AC50 [12]: 2.26 µM (active)
- AC50 [13]: 11.6 µM (active)
- AC50 [14]: 1.21 µM (active)

SMILES: CCOC(=O)[C@]12Cc3cc(OC)ccc3[C@H]1N(C1CCCCC1)C(=O)c1cc(OC)ccc12
- IC50 [15]: 4.81 µM (active)

SMILES: C[C@H](CO)N1C[C@H](C)[C@H](CN(C)C(=O)NC2CCCCC2)Oc2ncc(-c3cccc(C(F)(F)F)c3)cc2C1=O
- AC50 [16]: 37.8 µM (active)

SMILES: C[C@H](CO)N1C[C@H](C)[C@H](CN(C)C(=O)Nc2ccc(C(F)(F)F)cc2)Oc2c(NC(=O)c3ccc(-c4nccs4)cc3)cccc2C1=O
- AC50 [8]: 5 µM (active)
- AC50 [17]: 4.22 µM (active)

SMILES: C=C(C)COc1ccc(-c2n[nH]c(C)c2Oc2ccccc2OC)c(O)c1
- IC50 [10]: > 69.5 µM (inactive)

SMILES: c1ccc(-c2nc(NCCCN3CCOCC3)c3ccccc3n2)cc1
- IC50 [18]: 17 µM (active)
- IC50 [19]: 37.2 µM (inactive)
- AC50 [20]: 32.4 µM (active)

SMILES: N#Cc1cccc(-c2ccc([C@@H]3[C@@H]4CN(C(=O)c5ccccn5)C[C@H]3N4)cc2)c1
- AC50 [1]: > 52 µM (inactive)
- AC50 [21]: 15 µM (active)
- AC50 [2]: 11.1 µM (active)
- AC50 [3]: 13.2 µM (active)

SMILES: CN1CCN(c2nc(-c3ccncc3)nc3ccccc23)CC1
- AC50 [20]: 8.41 µM (active)

SMILES: COc1ccc(-c2cnnc(N/N=C/c3ccc(-c4ccc([N+](=O)[O-])cc4)o3)n2)cc1
- IC50 [18]: 6.62 µM (active)
- IC50 [22]: 50 µM (inactive)
- IC50 [19]: > 80 µM (inactive)

SMILES: COc1ccc(/N=c2\[nH]c(=O)c3cc([N+](=O)[O-])ccc3s2)cc1
- IC50 [23]: > 50 µM (not active)
- IC50 [18]: 13.4 µM (active)
- IC50 [19]: 15.5 µM (active)

SMILES: CC(C)(C)c1ccc(-c2cc(-c3ccccc3O)[nH]n2)cc1
- IC50 [9]: 14.9 µM (inactive)

SMILES: Cc1cc(C)c(S(=O)(=O)N2CCN=C2c2ccccc2)cc1C
- AC50 [11]: 7.73 µM (active)
- AC50 [12]: 10.1 µM (active)
- AC50 [13]: 7.94 µM (active)
- AC50 [14]: 5.08 µM (active)

SMILES: CCc1ccc2oc(-c3ccc(N)cc3)nc2c1
- AC50 [1]: > 52 µM (inactive)
- IC50 [24]: 46.2 µM (active)
- AC50 [21]: > 52 µM (inactive)
- AC50 [2]: 7.42 µM (active)
- AC50 [3]: 4.19 µM (active)

SMILES: CC[C@@]12C(=O)N(c3cccc(F)c3)C(=O)N1[C@H](c1ccc(Cl)cc1)[C@@H]1C(=O)N(C3CCCCC3)C(=O)[C@@H]12
- AC50 [11]: < 0.26 µM (active)
- AC50 [12]: 0.416 µM (active)
- AC50 [13]: 0.329 µM (active)
- AC50 [14]: < 0.26 µM (active)
